Test results published in ChEMBL document CHEMBL3227999, “Synthesis and biological properties of N2-substituted spin-labeled analogues of actinomycin D” (J Med Chem, 1979).
Active and inactive are the calls of the source. No cut-off for these calls is given here. Numbered stars: 1 amine (or outer) side, 2 acyl side, 3 side chain; on linkers, the order of the positions; unused ones are H or OH. Bridge positions count the residues as written; N and C are the ends. Square brackets hold non-standard residues; d marks the D form. Peptide text beside a SMILES is read from it. I, II: the chains in the order shown. Actinocin(9to1) = Cc1c2oc3c(C)ccc(C(=O)[*:1])c3nc-2c(C(=O)[*:2])c(N)c1=O; NMeV = CN[C@H](C(=O)O)C(C)C; Sar = CNCC(=O)O

How the values were obtained:
[1] = tested on: Mus musculus; test: Toxicity in mouse P388 cells allografted CDF1 mouse assessed as mortality at 6 mg/kg, ip administered on day 1, 5 and 9; type: organism-based; design: dose 6 mg/kg, route intraperitoneal; conditions: in vivo
[2] = biological target: Bacterial DNA-directed RNA polymerase (Bacteria, UniProt P0A7Z4+P0A800+P0A8T7+P0A8V2); test: Inhibition of Escherichia coli DNA-dependent RNA polymerase; type: protein-complex assay
[3] = tested on: Mus musculus; test: Toxicity in mouse P388 cells allografted CDF1 mouse assessed as weight loss at 4 mg/kg, ip administered on day 1, 5 and 9; type: organism-based; design: dose 4 mg/kg, route intraperitoneal; conditions: in vivo
[4] = tested on: Mus musculus; test: Toxicity in mouse P388 cells allografted CDF1 mouse assessed as weight loss at 6 mg/kg, ip administered on day 1, 5 and 9; type: organism-based; design: dose 6 mg/kg, route intraperitoneal; conditions: in vivo
[5] = biological target: T1, Bacterial DNA-directed RNA polymerase (Bacteria) (UniProt P0A8V2+P0A7Z4+P0A8T7+P0A800); test: Inhibition of Escherichia coli DNA-dependent RNA polymerase at 5 ug/ml using calf thymus DNA as primer; type: protein-complex assay
[6] = tested on: P388; test: Antitumor activity against mouse P388 cells allografted in CDF1 mouse assessed as survival at 0.4 mg/kg, ip administered on day 1, 5 and 9; type: functional; conditions: route intraperitoneal
[7] = tested on: L1210; test: Cytotoxicity against mouse L1210 cells at 1 ug/ml after 48 hrs; type: functional; conditions: L1210, 48 h
[8] = tested on: Mus musculus; test: Toxicity in mouse P388 cells allografted CDF1 mouse assessed as mortality at 0.4 mg/kg, ip administered on day 1, 5 and 9; type: organism-based; design: dose 0.4 mg/kg, route intraperitoneal; conditions: in vivo
[9] = tested on: P388; test: Antitumor activity against mouse P388 cells allografted in CDF1 mouse assessed as survival at 0.12 mg/kg, ip administered on day 1, 5 and 9; type: functional; conditions: route intraperitoneal
[10] = tested on: L1210; test: Cytotoxicity against mouse L1210 cells at 0.5 ug/ml after 48 hrs; type: functional; conditions: L1210, 48 h
[11] = biological target: T1, Bacterial DNA-directed RNA polymerase (Bacteria); test: Inhibition of Escherichia coli DNA-dependent RNA polymerase at 0.1 ug/ml using calf thymus DNA as primer; type: protein-complex assay
[12] = biological target: T1, Bacterial DNA-directed RNA polymerase (Bacteria); test: Inhibition of Escherichia coli DNA-dependent RNA polymerase at 2.5 ug/ml using calf thymus DNA as primer; type: protein-complex assay
[13] = tested on: Calf thymus DNA; test: Binding affinity to calf thymus DNA at 1 x 10^-5 M after 30 mins by circular dichroism analysis; type: nucleic-acid assay; conditions: Bos taurus
[14] = biological target: T1, Bacterial DNA-directed RNA polymerase (Bacteria); test: Inhibition of Escherichia coli DNA-dependent RNA polymerase at 0.05 ug/ml using calf thymus DNA as primer; type: protein-complex assay
[15] = biological target: T1, Bacterial DNA-directed RNA polymerase (Bacteria); test: Inhibition of Escherichia coli DNA-dependent RNA polymerase at 20 ug/ml using calf thymus DNA as primer; type: protein-complex assay
[16] = biological target: T1, Bacterial DNA-directed RNA polymerase (Bacteria); test: Inhibition of Escherichia coli DNA-dependent RNA polymerase at 20 ug/ml using Micrococcus luteus DNA as primer; type: protein-complex assay
[17] = tested on: L1210; test: Cytotoxicity against mouse L1210 cells at 5 ug/ml after 48 hrs; type: functional; conditions: L1210, 48 h
[18] = biological target: T1, Bacterial DNA-directed RNA polymerase (Bacteria); test: Inhibition of Escherichia coli DNA-dependent RNA polymerase at 1 ug/ml using Micrococcus luteus DNA as primer; type: protein-complex assay
[19] = biological target: T1, Bacterial DNA-directed RNA polymerase (Bacteria); test: Inhibition of Escherichia coli DNA-dependent RNA polymerase at 10 ug/ml using calf thymus DNA as primer; type: protein-complex assay
[20] = tested on: P388; test: Antitumor activity against mouse P388 cells allografted in CDF1 mouse assessed as survival at 0.18 mg/kg, ip administered on day 1, 5 and 9; type: functional; conditions: route intraperitoneal
[21] = biological target: T1, Bacterial DNA-directed RNA polymerase (Bacteria); test: Inhibition of Escherichia coli DNA-dependent RNA polymerase at 10 ug/ml using Micrococcus luteus DNA as primer; type: protein-complex assay
[22] = biological target: T1, Bacterial DNA-directed RNA polymerase (Bacteria); test: Inhibition of Escherichia coli DNA-dependent RNA polymerase at 5 ug/ml using Micrococcus luteus DNA as primer; type: protein-complex assay
[23] = biological target: T1, Bacterial DNA-directed RNA polymerase (Bacteria); test: Inhibition of Escherichia coli DNA-dependent RNA polymerase at 0.5 ug/ml using Micrococcus luteus DNA as primer; type: protein-complex assay
[24] = biological target: T1, Bacterial DNA-directed RNA polymerase (Bacteria); test: Inhibition of Escherichia coli DNA-dependent RNA polymerase at 2.5 ug/ml using Micrococcus luteus DNA as primer; type: protein-complex assay
[25] = biological target: T1, Bacterial DNA-directed RNA polymerase (Bacteria); test: Inhibition of Escherichia coli DNA-dependent RNA polymerase at 1 ug/ml using calf thymus DNA as primer; type: protein-complex assay
[26] = tested on: L1210; test: Cytotoxicity against mouse L1210 cells at 0.1 ug/ml after 48 hrs; type: functional; conditions: L1210, 48 h
[27] = tested on: L1210; test: Cytotoxicity against mouse L1210 cells at 10 ug/ml after 48 hrs; type: functional; conditions: L1210, 48 h
[28] = biological target: T1, Bacterial DNA-directed RNA polymerase (Bacteria); test: Inhibition of Escherichia coli DNA-dependent RNA polymerase at 0.5 ug/ml using calf thymus DNA as primer; type: protein-complex assay
[29] = tested on: P388; test: Antitumor activity against mouse P388 cells allografted in CDF1 mouse assessed as survival at 0.08 mg/kg, ip administered on day 1, 5 and 9; type: functional; conditions: route intraperitoneal
[30] = tested on: L1210; test: Cytotoxicity against mouse L1210 cells at 0.01 ug/ml after 48 hrs; type: functional; conditions: L1210, 48 h
[31] = tested on: Calf thymus DNA; test: Binding affinity to calf thymus DNA at 1 x 10^-5 M by thermal denaturation assay; type: nucleic-acid assay; conditions: Bos taurus
[32] = tested on: P388; test: Antitumor activity against mouse P388 cells allografted in CDF1 mouse assessed as survival at 0.27 mg/kg, ip administered on day 1, 5 and 9; type: functional; conditions: route intraperitoneal
[33] = tested on: P388; test: Antitumor activity against mouse P388 cells allografted in CDF1 mouse assessed as survival at 0.6 mg/kg, ip administered on day 1, 5 and 9; type: functional; conditions: route intraperitoneal
[34] = biological target: T1, Bacterial DNA-directed RNA polymerase (Bacteria); test: Inhibition of Escherichia coli DNA-dependent RNA polymerase at 0.1 ug/ml using Micrococcus luteus DNA as primer; type: protein-complex assay
[35] = biological target: T1, Bacterial DNA-directed RNA polymerase (Bacteria); test: Inhibition of Escherichia coli DNA-dependent RNA polymerase at 0.25 ug/ml using Micrococcus luteus DNA as primer; type: protein-complex assay
[36] = biological target: T1, Bacterial DNA-directed RNA polymerase (Bacteria); test: Inhibition of Escherichia coli DNA-dependent RNA polymerase at 0.25 ug/ml using calf thymus DNA as primer; type: protein-complex assay
[37] = tested on: L1210; test: Cytotoxicity against mouse L1210 cells at 0.05 ug/ml after 48 hrs; type: functional; conditions: L1210, 48 h
[38] = tested on: Mus musculus; test: Toxicity in mouse P388 cells allografted CDF1 mouse assessed as weight loss at 0.18 mg/kg, ip administered on day 1, 5 and 9; type: organism-based; design: dose 0.18 mg/kg, route intraperitoneal; conditions: in vivo
[39] = tested on: Mus musculus; test: Toxicity in mouse P388 cells allografted CDF1 mouse assessed as mortality at 0.6 mg/kg, ip administered on day 1, 5 and 9; type: organism-based; design: dose 0.6 mg/kg, route intraperitoneal; conditions: in vivo
[40] = tested on: L1210; test: Cytotoxicity against mouse L1210 cells at 0.001 ug/ml after 48 hrs; type: functional; conditions: L1210, 48 h
[41] = biological target: T1, Bacterial DNA-directed RNA polymerase (Bacteria); test: Inhibition of Escherichia coli DNA-dependent RNA polymerase at 0.05 ug/ml using Micrococcus luteus DNA as primer; type: protein-complex assay
[42] = tested on: Mus musculus; test: Toxicity in mouse P388 cells allografted CDF1 mouse assessed as mortality at 0.27 mg/kg, ip administered on day 1, 5 and 9; type: organism-based; design: dose 0.27 mg/kg, route intraperitoneal; conditions: in vivo

T1 sequence (P0A7Z4 whole entry partner): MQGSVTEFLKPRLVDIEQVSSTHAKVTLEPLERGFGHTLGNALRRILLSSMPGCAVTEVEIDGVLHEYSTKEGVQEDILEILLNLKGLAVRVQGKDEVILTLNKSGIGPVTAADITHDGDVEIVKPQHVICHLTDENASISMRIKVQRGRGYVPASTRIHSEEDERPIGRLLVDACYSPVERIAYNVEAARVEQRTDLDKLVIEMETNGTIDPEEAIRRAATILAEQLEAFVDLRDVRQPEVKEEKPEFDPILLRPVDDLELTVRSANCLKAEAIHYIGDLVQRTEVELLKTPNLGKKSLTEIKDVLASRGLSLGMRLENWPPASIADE
T1 sequence (P0A800 2-91 partner limits assumed): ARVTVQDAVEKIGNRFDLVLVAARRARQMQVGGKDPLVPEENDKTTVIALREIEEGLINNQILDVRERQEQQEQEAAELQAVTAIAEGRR
T1 sequence (P0A8T7 whole entry partner): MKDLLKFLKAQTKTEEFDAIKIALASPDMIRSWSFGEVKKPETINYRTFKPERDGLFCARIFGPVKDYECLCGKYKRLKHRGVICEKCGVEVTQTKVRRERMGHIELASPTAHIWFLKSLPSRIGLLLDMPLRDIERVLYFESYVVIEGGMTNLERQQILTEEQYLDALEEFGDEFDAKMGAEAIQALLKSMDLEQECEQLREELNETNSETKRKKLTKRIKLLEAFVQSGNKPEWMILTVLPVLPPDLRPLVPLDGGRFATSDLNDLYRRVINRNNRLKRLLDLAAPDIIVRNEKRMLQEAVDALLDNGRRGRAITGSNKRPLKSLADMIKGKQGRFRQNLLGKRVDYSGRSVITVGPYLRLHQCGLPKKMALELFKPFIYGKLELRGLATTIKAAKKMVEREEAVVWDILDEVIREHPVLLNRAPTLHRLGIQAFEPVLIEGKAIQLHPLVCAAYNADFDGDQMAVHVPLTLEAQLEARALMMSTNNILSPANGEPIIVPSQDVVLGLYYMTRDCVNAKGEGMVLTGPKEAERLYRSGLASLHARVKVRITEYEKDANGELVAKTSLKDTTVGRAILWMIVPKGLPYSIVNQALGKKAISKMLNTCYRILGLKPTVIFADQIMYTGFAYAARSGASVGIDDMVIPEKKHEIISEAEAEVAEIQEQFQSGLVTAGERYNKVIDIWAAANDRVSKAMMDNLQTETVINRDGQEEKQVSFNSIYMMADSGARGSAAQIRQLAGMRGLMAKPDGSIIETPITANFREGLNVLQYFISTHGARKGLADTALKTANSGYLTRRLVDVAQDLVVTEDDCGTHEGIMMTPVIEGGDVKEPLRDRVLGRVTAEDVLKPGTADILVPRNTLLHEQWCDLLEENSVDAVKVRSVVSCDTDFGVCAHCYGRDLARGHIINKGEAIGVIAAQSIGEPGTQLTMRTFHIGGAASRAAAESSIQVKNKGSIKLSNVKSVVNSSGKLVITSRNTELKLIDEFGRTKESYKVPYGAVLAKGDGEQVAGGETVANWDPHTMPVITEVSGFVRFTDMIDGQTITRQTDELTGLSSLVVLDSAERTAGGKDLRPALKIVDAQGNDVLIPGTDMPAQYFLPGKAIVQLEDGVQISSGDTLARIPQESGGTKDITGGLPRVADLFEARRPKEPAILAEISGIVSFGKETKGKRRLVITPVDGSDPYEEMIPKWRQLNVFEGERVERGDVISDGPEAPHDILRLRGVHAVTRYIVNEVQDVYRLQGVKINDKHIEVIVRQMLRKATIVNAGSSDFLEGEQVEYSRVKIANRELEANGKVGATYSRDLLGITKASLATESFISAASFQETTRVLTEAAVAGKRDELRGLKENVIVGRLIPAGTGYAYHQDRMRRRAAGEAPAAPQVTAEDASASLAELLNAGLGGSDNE
T1 sequence (P0A8V2 whole entry): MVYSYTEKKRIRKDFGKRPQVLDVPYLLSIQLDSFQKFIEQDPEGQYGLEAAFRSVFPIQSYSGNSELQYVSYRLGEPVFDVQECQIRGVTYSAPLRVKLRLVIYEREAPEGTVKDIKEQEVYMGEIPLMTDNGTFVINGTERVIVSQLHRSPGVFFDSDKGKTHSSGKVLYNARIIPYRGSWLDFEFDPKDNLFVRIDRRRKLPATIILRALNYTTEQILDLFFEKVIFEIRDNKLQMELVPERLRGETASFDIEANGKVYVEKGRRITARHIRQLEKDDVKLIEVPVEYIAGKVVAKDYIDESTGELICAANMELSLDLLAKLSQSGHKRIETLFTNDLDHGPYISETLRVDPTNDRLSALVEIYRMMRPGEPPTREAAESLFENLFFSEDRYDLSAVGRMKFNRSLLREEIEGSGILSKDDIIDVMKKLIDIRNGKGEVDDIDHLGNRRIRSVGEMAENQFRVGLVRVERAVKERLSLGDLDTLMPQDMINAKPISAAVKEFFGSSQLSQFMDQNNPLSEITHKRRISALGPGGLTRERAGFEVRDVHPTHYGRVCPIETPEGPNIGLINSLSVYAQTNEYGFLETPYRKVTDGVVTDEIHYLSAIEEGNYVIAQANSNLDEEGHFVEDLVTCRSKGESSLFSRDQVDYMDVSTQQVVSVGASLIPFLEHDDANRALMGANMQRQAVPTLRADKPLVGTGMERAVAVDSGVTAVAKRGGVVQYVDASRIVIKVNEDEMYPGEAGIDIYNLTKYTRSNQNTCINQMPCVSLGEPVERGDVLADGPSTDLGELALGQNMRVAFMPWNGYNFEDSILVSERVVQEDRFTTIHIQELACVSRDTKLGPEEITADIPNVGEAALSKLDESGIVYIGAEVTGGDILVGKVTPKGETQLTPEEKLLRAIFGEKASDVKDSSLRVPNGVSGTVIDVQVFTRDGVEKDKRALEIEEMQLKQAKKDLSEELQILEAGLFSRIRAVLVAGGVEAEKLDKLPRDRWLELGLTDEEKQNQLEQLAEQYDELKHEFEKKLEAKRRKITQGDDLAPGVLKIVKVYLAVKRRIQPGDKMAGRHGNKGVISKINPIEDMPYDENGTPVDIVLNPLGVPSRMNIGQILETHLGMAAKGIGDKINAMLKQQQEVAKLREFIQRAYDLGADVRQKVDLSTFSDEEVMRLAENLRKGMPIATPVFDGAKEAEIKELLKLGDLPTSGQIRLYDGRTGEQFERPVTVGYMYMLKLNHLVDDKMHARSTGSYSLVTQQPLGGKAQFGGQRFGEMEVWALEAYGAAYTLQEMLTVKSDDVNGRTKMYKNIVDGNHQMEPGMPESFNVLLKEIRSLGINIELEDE

Cc1c2oc3c(C)ccc(C(=O)N[C@@H]4C(=O)N[C@H](C(C)C)C(=O)N5CCC[C@H]5C(=O)N(C)CC(=O)N(C)[C@@H](C(C)C)C(=O)O[C@@H]4C)c3nc-2c(C(=O)N[C@@H]2C(=O)N[C@H](C(C)C)C(=O)N3CCC[C@H]3C(=O)N(C)CC(=O)N(C)[C@@H](C(C)C)C(=O)O[C@@H]2C)c(NCCNC2CC(C)(C)[N+]([O-])C(C)(C)C2)c1=O was tested, and the Activity [1] was “Toxic”, the IC50 [2] was 2750 nM and the Activity [3] was “Toxic”.
In the case of Cc1c2oc3c(C)ccc(C(=O)N[C@@H]4C(=O)N[C@H](C(C)C)C(=O)N5CCC[C@H]5C(=O)N(C)CC(=O)N(C)[C@@H](C(C)C)C(=O)O[C@@H]4C)c3nc-2c(C(=O)N[C@@H]2C(=O)N[C@H](C(C)C)C(=O)N3CCC[C@H]3C(=O)N(C)CC(=O)N(C)[C@@H](C(C)C)C(=O)O[C@@H]2C)c(NCCCNC2CC(C)(C)[N+]([O-])C(C)(C)C2)c1=O, the Activity [4] is reported as “Toxic” and the IC50 [2] is reported as 2730 nM.
Cc1c2oc3c(C)ccc(C(=O)N[C@@H]4C(=O)N[C@H](C(C)C)C(=O)N5CCC[C@H]5C(=O)N(C)CC(=O)N(C)[C@@H](C(C)C)C(=O)O[C@@H]4C)c3nc-2c(C(=O)N[C@@H]2C(=O)N[C@H](C(C)C)C(=O)N3CCC[C@H]3C(=O)N(C)CC(=O)N(C)[C@@H](C(C)C)C(=O)O[C@@H]2C)c(N)c1=O [DACTINOMYCIN] (I: T[dV]P[Sar][NMeV] / II: T[dV]P[Sar][NMeV]; ester I:1-I:C, II:1-II:C; linker I:N-II:N via Actinocin(9to1)) gave an inhibition [5] of 93%, a Survival [6] of 8 days and a T/C [6] of 76%. The inhibition at 1 µg/mL [7] was 97%, the Activity [8] was “Toxic” and the Survival [9] was 19 days. For the same molecule, the T/C [9] was 181%, the inhibition at 0.5 µg/mL [10] was 99% and the inhibition [11] was 30%. For the same molecule, the inhibition [12] was 89%, the Activity [13] was “Active” and the inhibition [14] was 17%. The inhibition [15] was 100%, the inhibition [16] was 99% and the inhibition at 5 µg/mL [17] was 99%. For the same molecule, the inhibition [18] was 72%, the IC50 [2] was 159 nM and the inhibition [19] was 96%. It also gave a Survival [20] of 18 days, a T/C [20] of 171% and an inhibition [21] of 99%. It also gave an inhibition [22] of 95%, an inhibition [23] of 54% and an inhibition [24] of 92%. For the same molecule, the inhibition [25] was 79%, the inhibition at 0.1 µg/mL [26] was 78% and the inhibition at 10 µg/mL [27] was 98%. For the same molecule, the inhibition [28] was 61%, the Survival [29] was 15 days and the T/C [29] was 143%. The inhibition at 0.01 µg/mL [30] was 57%, the ΔTm [31] was 8.7 °C and the Survival [32] was 10 days. It also gave a T/C [32] of 95%, a Survival [33] of 5 days and a T/C [33] of 48%. The inhibition [34] was 16%, the inhibition [35] was 44% and the inhibition [36] was 62%. The inhibition at 0.05 µg/mL [37] was 78%, the Activity [38] was “Toxic” and the Activity [39] was “Toxic”. For the same molecule, the inhibition at 0.001 µg/mL [40] was 51%, the inhibition [41] was 7% and the Activity [42] was “Toxic”.
With Cc1c2oc3c(C)ccc(C(=O)N[C@@H]4C(=O)N[C@H](C(C)C)C(=O)N5CCC[C@H]5C(=O)N(C)CC(=O)N(C)[C@@H](C(C)C)C(=O)O[C@@H]4C)c3nc-2c(C(=O)N[C@@H]2C(=O)N[C@H](C(C)C)C(=O)N3CCC[C@H]3C(=O)N(C)CC(=O)N(C)[C@@H](C(C)C)C(=O)O[C@@H]2C)c(NC2CC(C)(C)[N+]([O-])C(C)(C)C2)c1=O the Activity [4] was “Toxic”.
